How the values were obtained:
[1] = system: spontaneous hypertensive rats (SHR); assay: Anti-hypertensive efficacy of monotherapy and combined therapy in spontaneous hypertensive rats (tail-cuff blood pressure); assay type: in vivo, rat
Procedure: An in vivo study was conducted to measure and compare the anti-hypertensive efficacy and tolerability of dextromethorphan and amlodipine in monotherapy and combined therapy in spontaneous hypertensive rats, an animal model for hypertension. The same study can be performed with other NADPH oxidase inhibitor and CCB.
Aged 18-week male normotensive Wistar Kyoto (WKY) and spontaneous hypertensive rats (SHR) were used in this study.
Untreated WKY and SHR were compared with SHR treated with amlodipine (1, 5 mg/kg/day) or dextromethorphan (1, 5, 25 mg/kg/day) and fix dose combination (AM+DM) using a matrix combination of above doses for 4 weeks. All the treatment groups are listed in Table 1, including G1˜G12 for SHR and G0 for WKY as a control.
Control rats (G0 and G1) received 1% solution of methylcellulose (1 ml/kg) by a gavage as a vehicle. AM and DM were suspended in 1% solution of methylcellulose and administered by a gavage in a 1 ml/kg volume. All compounds were administered for 4 weeks. Arterial blood pressure measurement and blood sampling were carried out before treatment, and after the second and forth week of drug administration.
Arterial blood pressure was measured in conscious rats with an automatic sphygmomanometer, using tail-cuff method. Before the measurements, the animals were placed inside a warming chamber (about 34° C.) for 30 min. The aim of the procedure is to calm the animals and dilate the tail blood vessels. Arterial blood pressure was measured at least three times for each animal. Changes in pressure are expressed as the percentage of baseline values.
Arterial blood pressure and blood sampling will be measured before treatment, and after the second and forth week of drug administration (FIG. 6).
Results are expressed as mean±SD. The normality of distribution was checked by means of Kolmogorov-Smirnov test with Lilliefors test. The statistical evaluation was performed using analysis of variance (ANOVA) and post hoc comparisons were performed by means of Least Significant Differences (LSD) test. If the data were not normally distributed, statistical evaluation was performed by using ANOVA (Kruskall-Wallis) and Mann-Whitney U test. Differences were considered significant when p<0.05.

[2] = system: apolipoprotein E (apoE)-deficient mice; conditions: cited from earlier work
[3] = system: animal models of hypertension; conditions: cited from earlier work

Compound: CCOC(=O)C1=C(COCCN)NC(C)=C(C(=O)OC)C1c1ccccc1Cl (stereo not shown) [AM, 3-ethyl 5-methyl 2-[(2-aminoethoxy)methyl]-4-(2-chlorophenyl)-1,4-dihydro-6-m ethylpyridine-3,5-dicarboxylate]
- blood pressure lowering effect (SBP, DBP, MBP) ([1]; AM alone at 1 and 5 mg/kg/day by gavage for 4 weeks, FIGS. 2a-d): resulted in lowering of the blood pressure
- dosage response of blood pressure lowering ([1]; AM alone, 1 vs 5 mg/kg/day): more pronounced with the higher dose

Compound: COc1ccc2c(c1)[C@]13CCCC[C@@H]1[C@H](C2)N(C)CC3 [DM, (+)-3-methoxy-17-methyl-9α,13α,14α-morphinan]
- blood pressure lowering effect (SBP, DBP, MBP) ([1]; DM alone at 1, 5 and 25 mg/kg/day by gavage for 4 weeks, FIGS. 1a-d): resulted in lowering of the blood pressure
- dosage response of blood pressure lowering ([1]; DM alone, 1 vs 5 vs 25 mg/kg/day): no clear dosage response was observed
- superoxide production ([2]; aorta and carotid artery of apoE-deficient mice): decreases superoxide production
- oxidative stress, atherosclerosis and neointima formation ([2]; mice, through direct inhibition of NADPH oxidase): reduces oxidative stress and inhibits atherosclerosis and neointima formation

Compound: COc1cc(C(C)=O)ccc1O [apocynin]
- blood pressure [3]: decrease blood pressure

— US9744165B2, “Method for treating hypertension” (TSH Biopharm Corporation Ltd., priority 2010, dated 2017)
